SMILES strings stand for the structures.

This test concerns the target T1, P2X purinoceptor 7 (Homo sapiens, UniProt Q99572).
T1 sequence (Q99572 whole entry): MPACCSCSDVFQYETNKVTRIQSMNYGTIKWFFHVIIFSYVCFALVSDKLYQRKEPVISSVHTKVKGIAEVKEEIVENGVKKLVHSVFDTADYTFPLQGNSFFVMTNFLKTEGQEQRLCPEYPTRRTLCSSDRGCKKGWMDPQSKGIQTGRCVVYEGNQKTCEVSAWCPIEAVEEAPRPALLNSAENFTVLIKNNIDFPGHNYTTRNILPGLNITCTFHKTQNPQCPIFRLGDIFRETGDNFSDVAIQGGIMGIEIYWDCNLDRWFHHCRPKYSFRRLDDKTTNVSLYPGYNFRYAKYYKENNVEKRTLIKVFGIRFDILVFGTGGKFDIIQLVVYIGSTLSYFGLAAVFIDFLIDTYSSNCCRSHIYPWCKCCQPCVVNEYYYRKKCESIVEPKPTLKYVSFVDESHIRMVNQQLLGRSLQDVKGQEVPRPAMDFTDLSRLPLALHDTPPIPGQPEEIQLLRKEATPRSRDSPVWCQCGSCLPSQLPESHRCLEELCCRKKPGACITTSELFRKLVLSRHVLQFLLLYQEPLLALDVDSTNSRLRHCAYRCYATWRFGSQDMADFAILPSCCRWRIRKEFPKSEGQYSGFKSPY
The test is described as follows: Fluorescent Imaging Plate Reader (FLIPR) Assay: Briefly, 293-human or mouse P2X7 stable cells were incubated in sucrose buffer, pH 7.4 [KCl (5 mM), NaH2PO42H2O (9.6 mM), HEPES (25 mM), sucrose (280 mM), glucose (5 mM), CaCl2 (0.5 mM), and probenecid (0.1425 g in 3 mL 1N NaOH was added for 500 mL solution)] in 384-well plates. 93-rat P2X7 stable cells were incubated in HHPB (pH 7.4) [consisting of Hank's BSS (1X); HEPES (pH 7.4) (20 mM) (Sigma); probenecid (0.710 g/5 mL 1N NaOH) (Sigma); and BSA (0.05%) (Roche) which was added after the pH had been adjusted] in 384-well plates. Fluo-4 NW dye mix (Molecular Probes, Inc., Eugene, Oreg., USA) was prepared in buffer (see manufacturer's instructions). Cell plates were removed from the 37° C. incubator, the media discarded and then 30 μL of dye was added to each well. Plates were placed in the 37° C., non-CO2 incubator for 30 minutes and then room temperature for 30 minutes. Two sets of drug plates were prepared: A) Mixtures of compound plus agonist were prepared as follows, in order to determine close response: BzATP: 11 point ½ log, diluted in buffer, starting from 1 mM. Testing compounds: 11 point ½ log, diluted in 2% DMSO buffer starting from 10 μM. B) Agonist only mixture was prepared with BzATP at a single concentration in buffer (concentration determined by dose response). Compound mixtures (A) were added to assay plates containing cells and placed at room temperature for 30 minutes, then BzATP (B) was added. Fluorescence was read using the Tetra FLIPR® (Molecular Devices, Inc., Sunnyvale, Calif., USA) and IC50 values were calculated by standard methods to determine antagonist activity. The format is cell-based.
Consider `COc1ccc(C(CNC(=O)c2cc(C)ccc2Cl)N2CCCCC2)cc1` (stereo not drawn), for which the IC50 is 650 nM.

On to `COc1ccc(C(CNC(=O)c2cc(C)ccc2Cl)N2CCOCC2)cc1` (stereo not drawn), for which the IC50 was 59 nM.

`Cc1ccc(Cl)c(C(=O)NCC(c2ccc(F)cc2)N2CCOCC2)c1` (stereo not drawn): the IC50 was 21 nM.
